Results reported in patent US20240285571A1, “METHODS OF TREATING BONE INFECTIONS” (MICROBION CORPORATION, priority 2020, published 2024).
In brackets after ≈: the same amount, converted by molar mass.

How the values were obtained:
Streptococcus oralis = assay: MIC of baseline clinical isolates (Example 8); assay type: cell-based; settings: Streptococcus oralis baseline isolates (N′ = 1), central laboratory, mITT
Protocol: (§1) Microbiology was assessed on Day 1 and at the time of any subsequent surgical procedure at the index site. Samples were collected from the infected bone site or involved tissue adjacent to any implant(s), swabs of the deep infection site, and the superficial tissue/wound closure/sinus tract site. Isolation and identification of aerobic and anerobic bacteria was conducted at a central microbiology laboratory (IHMA, Schaumburg, IL) and susceptibility of the isolates to MBN-101 (BisEDT) and comparator agents was performed per Clinical and Laboratory Standards Institute (CLSI). Parallel sets of samples were analyzed by the local clinical site laboratory to guide patient antibiotic treatment.

[1] = test system: Corynebacterium resistens; assay: MIC of baseline clinical isolates (Example 8); assay type: cell-based; settings: Corynebacterium resistens baseline isolates (N′ = 1), central laboratory, mITT
Protocol: as §1

Dermabacter hominis = assay: MIC of baseline clinical isolates (Example 8); assay type: cell-based; settings: Dermabacter hominis baseline isolates (N′ = 1), central laboratory, mITT
Protocol: as §1

[2] = test system: non-speciated Corynebacterium; assay: MIC of baseline clinical isolates (Example 8); assay type: cell-based; settings: Corynebacterium non-speciated baseline isolates (N′ = 2), central laboratory, mITT
Protocol: as §1

Corynebacterium jeikeium = assay: MIC of baseline clinical isolates (Example 8); assay type: cell-based; settings: Corynebacterium jeikeium baseline isolates (N′ = 2), central laboratory, mITT
Protocol: as §1

[3] = test system: Corynebacterium amycolatum; assay: MIC of baseline clinical isolates (Example 8); assay type: cell-based; settings: Corynebacterium amycolatum baseline isolates (N′ = 1), central laboratory, mITT
Protocol: as §1

[4] = test system: vancomycin-intermediate Staphylococcus aureus; assay: Broth microdilution MIC (Example 6); assay type: cell-based
Protocol: (§2) Test Compounds: The test agents BisEDT (MB-1-B3; Lot No. ED268-1-11-01), MB-2B, and MB-6 were stored at room temperature, in the dark, until assayed. The solvent and diluent for the test agents was DMSO (Sigma; St. Louis, MO; Lot No. SHBB9319V) and the prepared stock concentration was 6,464 μg/mL (101× the final test concentration).
(§3) Test compounds were evaluated at a concentration range of 0.06-64 μg/mL. For Gram-negative test isolates, amikacin and ceftazidime (alone and with clavulanate at a fixed concentration of 4 μg/mL) were evaluated over a concentration range of 0.06-64 μg/mL; meropenem and levofloxacin were evaluated over a concentration range of 0.008-8 μg/mL. For the testing of S. aureus, clindamycin, daptomycin, levofloxacin and vancomycin were evaluated at a concentration range of 0.008-8 μg/mL; linezolid was tested from 0.03-32 μg/mL.
(§4) Media: Cation-adjusted Mueller Hinton broth (CAMHB; BD; Lot No. 8190586) was used as the medium for testing (2, 3). For testing daptomycin, calcium was supplemented with […] Ca^2+, resulting in a final concentration of […] Ca^2+ (2, 3).
(§5) MIC Assay Procedure: MIC values were determined using a broth microdilution procedure described by CLSI (2, 3). Automated liquid handlers (Multidrop 384, Labsystems, Helsinki, Finland; Biomek 2000 and Biomek F X, Beckman Coulter, Fullerton CA) were used to conduct serial dilutions and liquid transfers.
(§6) To prepare the drug mother plates, which would provide the serial drug dilutions for the replicate daughter plates, the wells of columns 2 through 12 of standard 96-well microdilution plates (Costar 3795) were filled with 150 μl of the appropriate diluent for each row of drug. The test articles and comparator compounds (300 μl at 101× the highest concentration to be tested) were dispensed into the appropriate wells in column 1. The Biomek 2000 was then used to make 2-fold serial dilutions in the mother plates from column 1 through column 11. The wells of column 12 contained no drug and served as the organism growth control wells for the assay.
(§7) The daughter plates were loaded with 190 μL per well of RPMI using the Multidrop 384. The test panels were prepared on the Biomek FX instrument which transferred 2 μL of drug solution from each well of a mother plate to the corresponding well of each daughter plate in a single step.
(§8) A standardized inoculum of each test organism was prepared per CLSI methods to equal a 0.5 McFarland standard, followed by a dilution of 1:20. The plates were then inoculated with 10 μL of the diluted inoculum using the Biomek 2000 from low to high drug concentration resulting in a final concentration of approximately 5×10^5 CFU/mL.
(§9) Plates were stacked 3-4 high, covered with a lid on the top plate, placed into plastic bags, and incubated at 35° C. for 16 to 20 hr (vancomycin was read for S. aureus after 24 hr incubation time). The MIC was recorded as the lowest concentration of drug that inhibited visible growth of the organism.

[5] = test system: relevant ATCC QC organisms; assay: Broth microdilution MIC, QC (Example 6); assay type: cell-based; settings: S. aureus ATCC 29213
Protocol: as §2, §3
Organisms: The test organisms as shown in Tables 11-15 consisted of clinical isolates from the Micromyx (MMX) repository and reference strains from the American Type Culture Collection (ATCC; Manassas, VA), National Collection of Type Cultures (NCTC; Public Health England, Salisbury, UK), the Network on Antimicrobial Resistance in Staphylococcus aureus (NARSA; BEI Resources, Manassas, VA), and the Centers for Disease Control and Prevention (CDC; Atlanta, GA). The test organisms were maintained frozen at −80° C. Prior to testing, the isolates were cultured on Tryptic Soy Agar with 5% sheep blood (BAP; Becton Dickson [BD]/BBL; Sparks, MD; Lot Nos. 9080650 and 9108563) at 35° C. Relevant ATCC quality control (QC) organisms (Table 16) were included during testing in accordance with CLSI guidelines (3). Further details on the genetic characterization of the isolates where available can be found in Table 17.
as §4, §5, §6, §7, §8, §9

S. aureus = assay: Broth microdilution MIC (Example 5); assay type: cell-based, Staphylococcus aureus; settings: Staphylococcus aureus, ATCC 29213 / MSSA, S. aureus MMX 101 (ATCC 29213); QC; MSSA; read-out: MIC
Protocol: Test and Comparator Agents: The test agents were stored at room temperature until assayed. […] The stock solutions were allowed to stand for at least 1 hr prior to use to auto-sterilize.
TestMedia: Test media were prepared and stored in accordance with guidelines from CLSI (4, 6, 7).
Broth Microdilution MC Testing (Aerobic Bacteria and Yeast): The broth microdilution assay method employed for the susceptibility testing of aerobic bacteria (excluding N. gonorrhoeae which was evaluated by agar dilution) and yeast essentially followed the procedures described by CLSI (3, 4, 7, 8) and employed automated liquid handlers to conduct serial dilutions and liquid transfers. […] These would become the ‘mother plates’ from which ‘daughter’ or test plates would be prepared. The drugs (300 μL at 40× the desired top concentration in the test plates) were dispensed into the appropriate well in Column 1 of the mother plates. The Biomek 2000 was used to make serial two-fold dilutions through Column 11 in the “mother plate”. The wells of Column 12 contained no drug and ultimately served as the organism growth control wells.
The daughter plates were prepared using the Biomek FX which transferred 5 μL of drug solution from each well of a mother plate to the corresponding well of the correct daughter plate in a single step.
A standardized inoculum of each organism was prepared per CLSI methods (3, 7). Isolated colonies of each test isolate were picked from the primary plate and a suspension was prepared to equal a 0.5 McFarland turbidity standard. Standardized suspensions were then diluted […] (1:100 for yeast, 1:20 for bacteria). After dilution, the inoculum suspensions were then transferred to compartments of sterile reservoirs divided by length (Beckman Coulter), and the Biomek 2000 was used to inoculate all plates. Daughter plates were placed on the Biomek 2000 in reverse orientation so that plates were inoculated from low to high drug concentration.
The Biomek 2000 delivered 10 μL of standardized inoculum into each well of the appropriate daughter plate for an additional 1:20 dilution.
Plates were stacked 4 high, covered with a lid on the top plate, placed into plastic bags, and incubated at 35° C. for approximately 24-48 hr for all yeast isolates and 16-24 hr for aerobic bacteria. Plates were viewed from the bottom using a plate viewer. […] MIC endpoints for the test agents and control compounds were read per CLSI criteria (3, 7).

For `CO/N=C(\C(=O)N[C@@H]1C(=O)N2C(C(=O)O)=C(CSc3nc(=O)c(O)nn3C)CS[C@H]12)c1csc(N)n1` [CRO], the “Mean MIC” value (Streptococcus oralis) was 0.06 µg/mL, the “n (% resistant)” value (Streptococcus oralis) was 0 (0.0) n (%) and the “Mean MIC” value [1] was 4.00 µg/mL. The “n (% resistant)” value [1] was 1 (100.0) n (%), the “Mean MIC” value (Dermabacter hominis) was 0.50 µg/mL and the “n (% resistant)” value (Dermabacter hominis) was 0 (0.0) n (%). The “Mean MIC” value [2] was 0.75 µg/mL, the “n (% resistant)” value [2] was 0 (0.0) n (%) and the “Mean MIC” value (Corynebacterium jeikeium) was 4.00 µg/mL. The “n (% resistant)” value (Corynebacterium jeikeium) was 2 (100.0) n (%), the “Mean MIC” value [3] was 1.00 µg/mL and the “n (% resistant)” value [3] was 0 (0.0) n (%).

Work on `CCCCCCCCCC(=O)N[C@@H](Cc1c[nH]c2ccccc12)C(=O)N[C@H](CC(N)=O)C(=O)N[C@@H](CC(=O)O)C(=O)N[C@@H]1C(=O)NCC(=O)N[C@@H](CCCN)C(=O)N[C@@H](CC(=O)O)C(=O)N[C@H](C)C(=O)N[C@@H](CC(=O)O)C(=O)NCC(=O)N[C@H](CO)C(=O)N[C@@H]([C@H](C)CC(=O)O)C(=O)N[C@@H](CC(=O)c2ccccc2N)C(=O)O[C@@H]1C` [DAP] yielded an MIC ([4]; S. aureus isolate NRS 1 (hVISA)) of 1 µg/mL, an MIC ([4]; S. aureus isolate NRS 2) of 0.25 µg/mL and an MIC ([4]; S. aureus isolate NRS 3) of 1 µg/mL. For the same compound, the MIC ([4]; S. aureus isolate NRS 4) was 0.5 µg/mL, the MIC ([4]; S. aureus isolate NRS 13) was 2 µg/mL and the MIC ([4]; S. aureus isolate NRS 18) was 0.5 µg/mL. For the same compound, the MIC ([4]; S. aureus isolate NRS 22) was 2 µg/mL, the MIC ([4]; S. aureus isolate NRS 24 (hVISA)) was 0.5 µg/mL and the MIC ([4]; S. aureus isolate NRS 27) was 0.25 µg/mL. The MIC [5] was 0.5 µg/mL.

In the case of `CC[C@H]1OC(=O)[C@H](C)[C@@H](O[C@H]2C[C@@](C)(OC)[C@@H](O)[C@H](C)O2)[C@H](C)[C@@H](O[C@@H]2O[C@H](C)C[C@H](N(C)C)[C@H]2O)[C@](C)(O)C[C@@H](C)C(=O)[C@H](C)[C@@H](O)[C@]1(C)O` [ERY], the “Mean MIC” value (Streptococcus oralis) is reported as 1.00 µg/mL, the “n (% resistant)” value (Streptococcus oralis) is reported as 1 (100.0) n (%) and the “Mean MIC” value [1] is reported as 0.02 µg/mL. For the same compound, the “n (% resistant)” value [1] was 0 (0.0) n (%), the “Mean MIC” value (Dermabacter hominis) was 2.00 µg/mL and the “n (% resistant)” value (Dermabacter hominis) was 1 (100.0) n (%). The “Mean MIC” value [2] was 2.02 µg/mL, the “n (% resistant)” value [2] was 1 (50.0) n (%) and the “Mean MIC” value (Corynebacterium jeikeium) was 2.25 µg/mL. For the same compound, the “n (% resistant)” value (Corynebacterium jeikeium) was 1 (50.0) n (%), the “Mean MIC” value [3] was 4.00 µg/mL and the “n (% resistant)” value [3] was 1 (100.0) n (%).

`Cc1onc(-c2ccccc2)c1C(=O)N[C@@H]1C(=O)N2[C@@H]1SC(C)(C)[C@@H]2C(=O)O` [Oxacillin] gave an MIC (S. aureus) of 0.2 µg/mL (≈ 0.498 µM).

In the case of `CC1(C)S[C@@H]2[C@H](NC(=O)Cc3ccccc3)C(=O)N2[C@H]1C(=O)O` [PEN], the “Mean MIC” value (Streptococcus oralis) is reported as 0.06 µg/mL, the “n (% resistant)” value (Streptococcus oralis) is reported as 0 (0.0) n (%) and the “Mean MIC” value [1] is reported as 4.00 µg/mL. The “n (% resistant)” value [1] was 1 (100.0) n (%), the “Mean MIC” value (Dermabacter hominis) was 0.50 µg/mL and the “n (% resistant)” value (Dermabacter hominis) was 0 (0.0) n (%). For the same compound, the “Mean MIC” value [2] was 2.06 µg/mL, the “Mean MIC” value (Corynebacterium jeikeium) was 4.00 µg/mL and the “n (% resistant)” value (Corynebacterium jeikeium) was 2 (100.0) n (%). For the same compound, the “Mean MIC” value [3] was 1.00 µg/mL and the “n (% resistant)” value [3] was 0 (0.0) n (%).
